For series [1], the system named is mouse T cells. Nature of the series: Inhibition of T-cell proliferation (mouse T cells stimulated with ionomycin + PMA, tritiated-thymidine incorporation). It counts as cell-based. The settings on record: for Percent Inhibition of Proliferation / reversal of inhibitory activity by exogenous IL-2: mouse T cells; for reversal of inhibitory activity by exogenous IL-2: exogenous IL-2 (50 units/ml). The source says: Biological activity as a immunosupressant can be measured in terms of inhibition of T-cell proliferation.
For orientation: Uptake of a labelled nucleoside into DNA is a usual measure of proliferation.

Series [2] deals with immune response. The settings on record: rats; cited from earlier work.
In series [3] the test system is heart, kidney, bowel, pancreas or other transplantation. The settings on record: in combination with Cyclosporin A; cited from earlier work.
In series [4] the test system is heterotopic heart allografts. The settings on record: rats given heterotopic heart allografts, cited from earlier work.

With `COC1CC2CCC(C)C(O)(O2)C(=O)C(=O)N2CCCCC2C(=O)OC(C(C)CC2CCC(O)C(OC)C2)CC(=O)C(C)/C=C(\C)C(O)C(O)C(=O)C(C)CC(C)/C=C/C=C/C=C/1C` (centres unmarked) [29-desmethyl-rapamycin, 29-desmethyl rapamycin], the “Percent Inhibition of Proliferation” value was 7% in series [1] (0.001 μM, ionomycin + PMA); 32% in series [1] (0.01 μM, ionomycin + PMA); 49% in series [1] (0.12 μM, ionomycin + PMA); 59% in series [1] (1.2 μM, ionomycin + PMA); 88% in series [1] (11.2 μM, ionomycin + PMA). In addition, the “reversal of inhibitory activity by exogenous IL-2” value in series [1] (ionomycin + PMA) was “not reversed by exogenous IL-2”. For the same compound, the “inhibition of proliferation of mouse T cells (qualitative)” value in series [1] (ionomycin + PMA) is “found to inhibit the proliferation of mouse T cells”.
For `CO[C@H]1C[C@@H]2CC[C@@H](C)[C@@](O)(O2)C(=O)C(=O)N2CCCC[C@H]2C(=O)O[C@H]([C@H](C)C[C@@H]2CC[C@@H](O)[C@H](OC)C2)CC(=O)[C@H](C)/C=C(\C)[C@@H](O)[C@@H](OC)C(=O)[C@H](C)C[C@H](C)/C=C/C=C/C=C/1C` [rapamycin], the “inhibition of the response to allergic encephalomyelitis, adjuvant-induced arthritis and antibody production” value in series [2] was “inhibiting the response to allergic encephalomyelitis,adjuvant-induced arthritis and antibody production in rats”. In addition, the inhibition at 1.1 µM in series [1] (Mus musculus, T-cell, read-out: inhibited the proliferation) was 65%. The “reversal of inhibitory activity by exogenous IL-2” value in series [1] (ionomycin + PMA) is listed as “not reversed by exogenous IL-2”. Moreover, in series [3], the “effect on amount of Cyclosporin A required” value was “reducing the amount of Cyclosporin A required to produce its immunosupressive effect” and the “effect on nephrotoxicity of Cyclosporin A” value is “effectively reducing the nephrotoxicity inherent in treatment with Cyclosporin A”. In series [4] (compared with what would be anticipated with FK-506), the toxicity result is on record as “less toxicity was said to be experienced than would be anticipated with FK-506”. Further, the “immunosuppression in heart allograft recipients” value in series [4] is recorded as “immunosuppressive in rats given heterotopic heart allografts”.
